Experimental data published in the NIST ThermoML archive (doi:10.1016/j.jct.2018.01.025).

Conditions: Liquid; for mass density: Vibrating tube method

CCCC[N+](C)(C)C.O=S(=O)([N-]S(=O)(=O)C(F)(F)F)C(F)(F)F [butyltrimethylammonium bis(trifluoromethylsulfonyl)imide]
Conditions	viscosity [mPa·s]
278.15 K, 101.33 kPa, Concentric cylinders viscometry	360.1
283.15 K, 101.33 kPa, Concentric cylinders viscometry	253.8
288.15 K, 101.33 kPa, Concentric cylinders viscometry	184.7
293.15 K, 101.33 kPa, Concentric cylinders viscometry	138.3
298.15 K, 101.33 kPa, Concentric cylinders viscometry	105.4
298.6 K, 101.33 kPa, Vibrating wire viscometry	102.17
301.53 K, 101.33 kPa, Vibrating wire viscometry	87.01
303.15 K, 101.33 kPa, Concentric cylinders viscometry	82.19
303.15 K, 10000 kPa, Falling or rolling sphere viscometry	93.4
303.15 K, 15000 kPa, Falling or rolling sphere viscometry	99.9
303.15 K, 25000 kPa, Falling or rolling sphere viscometry	114
303.15 K, 50000 kPa, Falling or rolling sphere viscometry	158.2
303.15 K, 75000 kPa, Falling or rolling sphere viscometry	218.5
303.15 K, 100000 kPa, Falling or rolling sphere viscometry	300.8
303.15 K, 125000 kPa, Falling or rolling sphere viscometry	413.1
303.15 K, 150000 kPa, Falling or rolling sphere viscometry	566.6
304.45 K, 101.33 kPa, Vibrating wire viscometry	76.4
307.33 K, 101.33 kPa, Vibrating wire viscometry	66.1
308.15 K, 101.33 kPa, Concentric cylinders viscometry	65.33
310.28 K, 101.33 kPa, Vibrating wire viscometry	58.41
313.15 K, 101.33 kPa, Concentric cylinders viscometry	53.01
313.15 K, 10000 kPa, Falling or rolling sphere viscometry	59.7
313.15 K, 15000 kPa, Falling or rolling sphere viscometry	63.7
313.15 K, 25000 kPa, Falling or rolling sphere viscometry	72.4
313.15 K, 50000 kPa, Falling or rolling sphere viscometry	98.5
313.15 K, 75000 kPa, Falling or rolling sphere viscometry	132.2
313.15 K, 100000 kPa, Falling or rolling sphere viscometry	175.9
313.15 K, 125000 kPa, Falling or rolling sphere viscometry	232.5
313.15 K, 150000 kPa, Falling or rolling sphere viscometry	306
313.34 K, 101.33 kPa, Vibrating wire viscometry	50.51
318.15 K, 101.33 kPa, Concentric cylinders viscometry	43.22
323.15 K, 101.33 kPa, Concentric cylinders viscometry	35.9
323.15 K, 10000 kPa, Falling or rolling sphere viscometry	40.1
323.15 K, 15000 kPa, Falling or rolling sphere viscometry	42.6
323.15 K, 25000 kPa, Falling or rolling sphere viscometry	47.9
323.15 K, 50000 kPa, Falling or rolling sphere viscometry	63.5
323.15 K, 75000 kPa, Falling or rolling sphere viscometry	83.6
323.15 K, 100000 kPa, Falling or rolling sphere viscometry	109.1
323.15 K, 125000 kPa, Falling or rolling sphere viscometry	142
323.15 K, 150000 kPa, Falling or rolling sphere viscometry	183.4
323.33 K, 101.33 kPa, Vibrating wire viscometry	35.59
328.15 K, 101.33 kPa, Concentric cylinders viscometry	30.18
328.27 K, 101.33 kPa, Vibrating wire viscometry	29.72
333.15 K, 101.33 kPa, Concentric cylinders viscometry	25.64
333.15 K, 10000 kPa, Falling or rolling sphere viscometry	28.2
333.15 K, 15000 kPa, Falling or rolling sphere viscometry	29.8
333.15 K, 25000 kPa, Falling or rolling sphere viscometry	33.3
333.15 K, 50000 kPa, Falling or rolling sphere viscometry	43.4
333.15 K, 75000 kPa, Falling or rolling sphere viscometry	56.1
333.15 K, 100000 kPa, Falling or rolling sphere viscometry	71.9
333.15 K, 125000 kPa, Falling or rolling sphere viscometry	91.8
333.15 K, 150000 kPa, Falling or rolling sphere viscometry	116.8
338.15 K, 101.33 kPa, Concentric cylinders viscometry	22.02
343.15 K, 101.33 kPa, Concentric cylinders viscometry	19.08
343.15 K, 10000 kPa, Falling or rolling sphere viscometry	21
343.15 K, 15000 kPa, Falling or rolling sphere viscometry	22
343.15 K, 25000 kPa, Falling or rolling sphere viscometry	24.3
343.15 K, 50000 kPa, Falling or rolling sphere viscometry	31
343.15 K, 75000 kPa, Falling or rolling sphere viscometry	39.5
343.15 K, 100000 kPa, Falling or rolling sphere viscometry	50.3
343.15 K, 125000 kPa, Falling or rolling sphere viscometry	63.8
343.15 K, 150000 kPa, Falling or rolling sphere viscometry	81
348.15 K, 101.33 kPa, Concentric cylinders viscometry	16.65
353.15 K, 101.33 kPa, Concentric cylinders viscometry	14.74
353.15 K, 10000 kPa, Falling or rolling sphere viscometry	15.6
353.15 K, 15000 kPa, Falling or rolling sphere viscometry	16.5
353.15 K, 25000 kPa, Falling or rolling sphere viscometry	18.3
353.15 K, 50000 kPa, Falling or rolling sphere viscometry	23.4
353.15 K, 75000 kPa, Falling or rolling sphere viscometry	29.4
353.15 K, 100000 kPa, Falling or rolling sphere viscometry	36.6
353.15 K, 125000 kPa, Falling or rolling sphere viscometry	45.3
353.15 K, 150000 kPa, Falling or rolling sphere viscometry	55.7
358.15 K, 101.33 kPa, Concentric cylinders viscometry	12.99
363.15 K, 101.33 kPa, Concentric cylinders viscometry	11.58
368.15 K, 101.33 kPa, Concentric cylinders viscometry	10.38
373.15 K, 101.33 kPa, Concentric cylinders viscometry	9.36

101.33 kPa
Conditions	mass density [kg/m3]
278.15 K	1411.5
283.15 K	1406.6
288.15 K	1401.9
293.15 K	1397.2
298.15 K	1392.8
303.15 K	1388.4
308.15 K	1384
313.15 K	1379.7
318.15 K	1375.4
323.15 K	1371.1
328.15 K	1366.8
333.15 K	1362.6
338.15 K	1358.4
343.15 K	1354.2
348.15 K	1350
353.15 K	1345.7
358.15 K	1341.4
363.15 K	1336.8
368.15 K	1332.5
373.15 K	1328.4
